Where two headings read alike, the source gives them in different places.
Target: human PDE4D catalytic domain (Homo sapiens (Human), UniProt Q08499)
Assay: PDE4 Assay (TR-FRET, FAM-cAMP cleavage)
Format: biochemical
Details: read-out: PDE4 IC50 range
Procedure, shortened: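 PDE4D catalytic domain (S380-L740) incubated briefly with unlabelled cAMP plus FAM-cAMP and titrated compound. Reaction stopped with binding buffer holding metal-ion nanoparticles that bind AMP phospho groups and Tb donor, and AMP formation read by TR-FRET. IC50 versus controls, reported as ranges (nM).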

[1] = human PDE4D catalytic domain (UniProt Q08499 [S380-L740]), 50% inhibition of substrate cleavage

Sequence of human PDE4D catalytic domain (Q08499 380-740): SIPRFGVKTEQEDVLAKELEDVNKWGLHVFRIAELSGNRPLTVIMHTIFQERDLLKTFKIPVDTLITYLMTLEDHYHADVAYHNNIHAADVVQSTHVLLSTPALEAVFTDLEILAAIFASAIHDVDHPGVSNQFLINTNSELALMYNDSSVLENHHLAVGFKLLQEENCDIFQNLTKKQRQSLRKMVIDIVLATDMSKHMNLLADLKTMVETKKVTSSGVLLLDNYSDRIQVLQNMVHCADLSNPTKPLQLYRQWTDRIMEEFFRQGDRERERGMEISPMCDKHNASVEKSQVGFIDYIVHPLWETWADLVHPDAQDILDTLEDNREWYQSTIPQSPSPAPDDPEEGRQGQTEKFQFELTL

CCn1nc(CCCCOC(=O)c2cc(C)n(C)n2)c2c1C(=O)NCC1(CCOCC1)C2 [Example 272, 4-(1-ethyl-8-oxo-spiro[6,7-dihydro-4H-pyrazolo[3,4-c]azepine-5,4′-tetrahydro-pyran]-3-yl)butyl 1,5-dimethylpyrazole-3-carboxylate]
IC50 [1]: < 100 nM

CCn1nc(C[C@@H](C)COC(=O)C2CCN(C(=O)OC)CC2)c2c1C(=O)NCC1(CCOCC1)C2 [Example 295, [(2R)-3-(1-ethyl-8-oxo-spiro[6,7-dihydro-4H-pyrazolo-[3,4-c]azepine-5,4′-tetrahydro-pyran]-3-yl)-2-methyl-propyl] 1-methoxycarbonylpiperidine-4-carboxylate]
IC50 (Table 16, Examples 277-296): < 100 nM

CCn1nc(C[C@@H](C)COC(=O)[C@H]2CC[C@H](O)CC2)c2c1C(=O)NCC1(CCOCC1)C2 [Example 146, [(2R)-3-(1-ethyl-8-oxo-spiro[6,7-dihydro-4H-pyrazolo[3,4-c]azepine-5,4′-tetrahydropyran]-3-yl)-2-methyl-propyl] 4-hydroxy-cyclohexanecarboxylate]
IC50 [1]: < 100 nM

CCn1nc(CCCOC(=O)c2cccc(C(=O)N3CCCC3)c2)c2c1C(=O)NCC1(CCOCC1)C2 [Example 116, 3-(1-ethyl-8-oxo-spiro[6,7-dihydro-4H-pyrazolo[3,4-c]azepine-5,4′-tetrahydropyran]-3-yl)propyl 3-(pyrrolidine-1-carbonyl)benzoate]
IC50 [1]: < 100 nM

CCn1nc(CCCOC(=O)c2cc(C(F)(F)F)ccc2Cl)c2c1C(=O)NCC1(CCOCC1)C2 [Example 91, 3-(1-ethyl-8-oxo-spiro[6,7-dihydro-4H-pyrazolo[3,4-c]azepine-5,4′-tetrahydro-pyran]-3-yl)propyl 2-chloro-5-(trifluoromethyl)benzoate]
IC50 [1]: < 100 nM

CCn1nc(CCCOC(=O)c2cccc(F)c2)c2c1C(=O)NCC1(CCOCC1)C2 [Example 9, 3-(1-ethyl-8-oxo-spiro[6,7-dihydro-4H-pyrazolo[3,4-c]azepine-5,4′-tetrahydropyran]-3-yl)propyl 3-fluorobenzoate]
IC50 [1]: < 100 nM

CCn1nc(C[C@@H](C)COC(=O)c2ccns2)c2c1C(=O)NCC1(CCOCC1)C2 [Example 283, [(2R)-3-(1-ethyl-8-oxo-spiro[6,7-dihydro-4H-pyrazolo[3,4-c]azepine-5,4′-tetrahydropyran]-3-yl)-2-methyl-propyl] isothiazole-5-carboxylate]
IC50 (Table 16, Examples 277-296): < 100 nM

CCn1nc(C[C@@H](C)COC(=O)c2cscn2)c2c1C(=O)NCC1(CCOCC1)C2 [Example 285, [(2R)-3-(1-ethyl-8-oxo-spiro[6,7-dihydro-4H-pyrazolo[3,4-c]azepine-5,4′-tetrahydropyran]-3-yl)-2-methyl-propyl] thiazole-4-carboxylate]
IC50 (Table 16, Examples 277-296): < 100 nM

CCn1nc(CC(C)(C)COC(=O)c2cccc(C(N)=O)c2)c2c1C(=O)NCC1(CCOCC1)C2 [Example 227, [3-(1-ethyl-8-oxo-spiro[6,7-dihydro-4H-pyrazolo[3,4-c]azepine-5,4′-tetrahydropyran]-3-yl)-2,2-dimethyl-propyl] 3-carbamoylbenzoate]
IC50 [1]: < 100 nM

CCn1nc(CCCOC(=O)c2cccc(C#N)c2)c2c1C(=O)NCC1(CCOCC1)C2 [Example 11, 3-(1-ethyl-8-oxo-spiro[6,7-dihydro-4H-pyrazolo[3,4-c]azepine-5,4′-tetrahydropyran]-3-yl) propyl 3-cyanobenzoate]
IC50 [1]: < 100 nM

CCn1nc(C[C@@H](C)COC(=O)c2ccc(F)cc2)c2c1C(=O)NCC1(CCOCC1)C2 [Example 145, [(2R)-3-(1-ethyl-8-oxo-spiro[6,7-dihydro-4H-pyrazolo[3,4-c]azepine-5,4′-tetrahydropyran]-3-yl)-2-methyl-propyl] 4-fluorobenzoate]
IC50 [1]: < 100 nM

CCn1nc(C[C@@H](C)COC(=O)c2ccc(C(=O)N3CCCCC3)cc2)c2c1C(=O)NCC1(CCOCC1)C2 [Example 173, [(2R)-3-(1-ethyl-8-oxo-spiro[6,7-dihydro-4H-pyrazolo[3,4-c]azepine-5,4′-tetrahydropyran]-3-yl)-2-methyl-propyl] 4-(piperidine-1-carbonyl)benzoate]
IC50 [1]: < 100 nM

Reference: US10793580B2, “Substituted pyrazoloazepin-8-ones and their use as phosphodiesterase inhibitors” (LEO Pharma A/S, priority 2016, dated 2020)
